One block for each compound: values may come before it. Where a SMILES comes first, the peptide text is derived from it. The star is where a group is joined. 6FAM = O=C1OC2(c3ccc(O)cc3Oc3cc(O)ccc32)c2cc(C(=O)*)ccc21
Key:
His-Gαi3 K35A = molecular target: T1, His-Gαi3 K35A (Homo sapiens, UniProt P08754, K35A); assay: Fluorescence polarization peptide binding, Gαi3 K35A; settings: peptide 0.025 μM, pH 7.4, room temperature, mean±s.e.m., n=3–7, Fig. 4d, read-out: Kd ± SEM
T1 construct: Full-length human Gαi3 (UNIPROT entry P08754) cloned in a pET24d(+) plasmid; made in house; host or cells: E. coli BL21 Rosetta
Procedure: (§1) Human Gαi3 was expressed from the same plasmid as described for the NMR studies and purified as an uncleaved His-tagged protein. […] After sonication (four cycles, with pulses lasting 20 s and with 1 min interval between pulses to prevent heating), lysates were centrifuged at 12,000g for 20 min at 4 °C. […] The buffer was exchanged for 20 mM Tris-HCl, pH 7.4, 20 mM NaCl, 1 mM MgCl2, 1 mM DTT, 10 μM GDP and 5% (v/v) glycerol using a HiTrap Desalting column (GE Healthcare). Protein samples were stored at −80 °C.
(§2) Fluorescence polarization-based peptide-binding assays
(§3) Briefly, following chain elongation 5,6-carboxyfluorescein was activated with HATU and coupled to the resin-bound peptide at 65 °C for 1 h to yield the fluorescein-labelled peptides. […] Fluorescence polarization measurements were carried out in 384-well plates (Black OptiPlate-384F, Perkin Elmer). […] Fluorescence polarization (excitation 485±10 nm/emission 528±10 nm) was measured every 2 min for 30 min at room temperature in a Biotek H1 synergy plate reader to ensure that the signals were stable in time. Fluorescence polarization at different times was averaged, normalized and fitted to a one site binding hyperbola to determine the equilibrium dissociation constant (Kd). For mutants not reaching binding saturation, the maximal binding of Gαi3 WT measured in the same experimental set was considered 100% binding for normalization.

His-Gαi3 W211A = molecular target: T2, His-Gαi3 W211A (Homo sapiens, UniProt P08754, W211A); assay: Fluorescence polarization peptide binding, Gαi3 W211A; settings: peptide 0.025 μM, pH 7.4, room temperature, mean±s.e.m., n=3–7, Fig. 4d, read-out: Kd ± SEM
T2 construct: Full-length human Gαi3 (UNIPROT entry P08754) cloned in a pET24d(+) plasmid; made in house; host or cells: E. coli BL21 Rosetta
Procedure: as §1, §2, §3

His-Gαi3 F215A = molecular target: T3, His-Gαi3 F215A (Homo sapiens, UniProt P08754, F215A); assay: Fluorescence polarization peptide binding, Gαi3 F215A; settings: peptide 0.025 μM, pH 7.4, room temperature, mean±s.e.m., n=3–7, Fig. 4d, read-out: Kd ± SEM
T3 construct: Full-length human Gαi3 (UNIPROT entry P08754) cloned in a pET24d(+) plasmid; made in house; host or cells: E. coli BL21 Rosetta
Procedure: as §1, §2, §3

His-Gαi3 L249V = molecular target: T4, His-Gαi3 L249V (Homo sapiens, UniProt P08754, L249V); assay: Fluorescence polarization peptide binding, Gαi3 L249V; settings: peptide 0.025 μM, pH 7.4, room temperature, mean±s.e.m., n=3–7, Fig. 4d, read-out: Kd ± SEM
T4 construct: Full-length human Gαi3 (UNIPROT entry P08754) cloned in a pET24d(+) plasmid; made in house; host or cells: E. coli BL21 Rosetta
Procedure: as §1, §2, §3

His-Gαi3 N256E = molecular target: T5, His-Gαi3 N256E (Homo sapiens, UniProt P08754, N256E); assay: Fluorescence polarization peptide binding, Gαi3 N256E; settings: peptide 0.025 μM, pH 7.4, room temperature, mean±s.e.m., n=3–7, Fig. 4d, read-out: Kd ± SEM
T5 construct: Full-length human Gαi3 (UNIPROT entry P08754) cloned in a pET24d(+) plasmid; made in house; host or cells: E. coli BL21 Rosetta
Procedure: as §1, §2, §3

ΔHis-Gαi3 = molecular target: T6, ΔHis-Gαi3 (Homo sapiens, UniProt P08754); assay: Fluorescence polarization peptide binding, ΔHis-Gαi3; settings: room temperature, n=3, Supplementary Fig. 5
T6 construct: Full-length human Gαi3 (UNIPROT entry P08754) cloned in a pET24d(+) plasmid; His-tag (N, cleaved yes); made in house; host or cells: E. coli BL21 Rosetta
Procedure: Briefly, following chain elongation 5,6-carboxyfluorescein was activated with HATU and coupled to the resin-bound peptide at 65 °C for 1 h to yield the fluorescein-labelled peptides. The remaining steps were carried out as described above. Fluorescence polarization measurements were carried out in 384-well plates (Black OptiPlate-384F, Perkin Elmer). […] Fluorescence polarization (excitation 485±10 nm/emission 528±10 nm) was measured every 2 min for 30 min at room temperature in a Biotek H1 synergy plate reader to ensure that the signals were stable in time. Fluorescence polarization at different times was averaged, normalized and fitted to a one site binding hyperbola to determine the equilibrium dissociation constant (Kd). For mutants not reaching binding saturation, the maximal binding of Gαi3 WT measured in the same experimental set was considered 100% binding for normalization.

His-Gαi3 W211A and F215A = assay: Gβγ-binding pull-down assay; set-up: species or system human; settings: bovine Gβ1γ1 100 nM, Gαi3 50 nM, 4 h, 4 °C, 30 μM GDP
Procedure: Gβγ was purified from bovine retinas, which are primarily composed of Gβ1γ1 by purification of holotransducin from rod outer segment (ROS) membranes isolated from dark-adapted bovine followed by separation of the Gβ1γ1 complex from the α-subunit of transducin on a Hitrap Blue-sepharose column (GE healthcare), and further purification by anion exchange chromatography using a Hitrap-Q column.
For binding assays, Gβ1γ1 (100 nM final) was incubated in the absence or presence of human His-tagged Gαi3 WT or mutants (50 nM final) in 250 μl of binding buffer (50 mM Tris-HCl, pH 7.4, 100 mM NaCl, 0.4% (v:v) NP-40, 5 mM MgCl2, 10 mM imidazole, 0.1 mg ml^−1 BSA, 1 mM DTT and 30 μM GDP) for 4 h at 4 °C with rotation. A volume of 25 μl of BSA-blocked HisPur cobalt resin (Pierce) were added to each tube and the incubation continued for 90 min. Beads were washed four times with 1 ml of binding buffer and resin-bound proteins eluted by adding Laemmli sample buffer supplemented with 100 mM EDTA and boiling for 5 min. […]

Gαi3-GDP = assay: NMR perturbation of Gαi3-GDP backbone amide signals; assay type: binding, human; settings: fivefold molar excess of peptide, 30 °C, pH 7.0
Procedure: Full-length human Gαi3 (UNIPROT entry P08754) cloned in a pET24d(+) plasmid (a generous gift from Ichio Shimada, University of Tokyo) was used to purify the protein used in NMR experiments. For this, protein expression was induced in BL21 Rosetta (Life Technologies) cell cultures with 1 mM IPTG for 16 h at 23 °C in a modified M9 minimal medium containing 1 g l^−1 15N-NH4Cl, 2 g l^−1 2H-^13C-glucose and 1 g l^−1 of ^2H-^13C-^15N Celtone base powder in ^2H2O with 30 mg l^−1 kanamycin and 34 mg l^−1 chloramphenicol. The pelleted cells were lysed by sonication in 50 mM Tris, 200 mM NaCl, 100 mM KCl and 1 mM DTT at pH 8.0, and the supernatant was loaded on a Ni^2+-loaded His-Trap FF column. […]
All NMR data were measured on a Bruker Avance III 800 MHz (18.8 T) spectrometer equipped with a cryogenically cooled triple resonance z-gradient probe, processed with Topspin (Bruker) and analysed with Sparky. […] Gαi3 spectra were recorded at 30 °C on ^2H-^13C-^15N–Gαi3 samples with a threefold molar excess of GDP in 10 mM HEPES (pH 7.0) with 10 mM MgCl2, 5 mm DTT, 0.01% NaN3 and 5% ^2H2O. […] The assignment of Gαi3 resonances in the presence of a fivefold molar excess of GIV fragment 1,671–1,696 was achieved from the joint analysis of an HNCO and ^1H–^15N TROSY spectra recorded along a titration (at molar ratios 1:0, 1:0.2,1:0.5, 1:1, 1:2 and 1:5). […]

[1] = test system: His-Gαi3 mutants in complex with Gβ1γ1; assay: Steady-state GTPase assay with rhodopsin; assay type: biochemical, human; settings: rhodopsin 20 nM, Gαi3/Gβ1γ1 100/200 nM, 30 °C
Procedure: Steady-state GTPase assays with rhodopsin
ROS membranes washed with urea were prepared as described earlier and used as the source of rhodopsin[67]. Human His-tagged Gαi3 WT and mutants (20–25 μM) were incubated overnight at 4 °C with twofold excess Gβ1γ1 in 20 mM Tris-HCl, pH 7.4, 20 mM NaCl, 1 mM MgCl2, 1 mM DTT, 10 μM GDP and 5% (v/v) glycerol. Bovine rhodopsin was freshly solubilized from urea-washed ROS membranes in assay buffer (20 mM HEPES, pH 7.5, 100 mM NaCl, 5 mM MgCl2, 1 mM DTT and 0.01% (w:v) dodecylmaltoside) for each experiment. Gαi3/Gβ1γ1 (100/200 nM final) and rhodopsin (20 nM final) were incubated in ice for 30 min under ambient light in assay buffer. Reactions were initiated at 30 °C by adding an equal volume of assay buffer containing 1 μM [γ-^32P]GTP (∼50 c.p.m. fmol^−1) and stopped in duplicates by mixing 25 μl of the reaction with 975 μl of ice-cold 5% (w/v) activated charcoal in 20 mM H3PO4, pH 3. Samples were then centrifuged for 10 min at 10,000g, and 500 μl of the resultant supernatant were scintillation-counted to quantify the amount of [^32P]Pi released. Background [^32P]Pi detected at 15 min in the absence of G protein was subtracted from each reaction (<5% of the counts detected in the presence of G proteins). Results were expressed as per cent of the activity of Gi3 WT without rhodopsin.

T4 sequence (P08754 whole entry L249V): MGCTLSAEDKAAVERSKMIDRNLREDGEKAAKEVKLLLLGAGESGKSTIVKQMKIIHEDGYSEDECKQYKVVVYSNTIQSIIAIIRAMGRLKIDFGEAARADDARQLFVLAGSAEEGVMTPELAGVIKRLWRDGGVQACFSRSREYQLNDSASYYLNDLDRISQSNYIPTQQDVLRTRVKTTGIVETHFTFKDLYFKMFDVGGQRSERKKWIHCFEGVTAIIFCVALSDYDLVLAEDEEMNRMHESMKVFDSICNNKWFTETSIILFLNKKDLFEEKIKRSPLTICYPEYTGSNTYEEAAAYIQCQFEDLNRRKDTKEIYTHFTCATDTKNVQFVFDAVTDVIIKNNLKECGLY
T2 sequence (P08754 whole entry W211A): as the sequence (P08754 whole entry L249V) above, with W211A, V249L counted along it
T5 sequence (P08754 whole entry N256E): as the sequence (P08754 whole entry L249V) above, with V249L, N256E counted along it
T1 sequence (P08754 whole entry K35A): as the sequence (P08754 whole entry L249V) above, with K35A, V249L counted along it
T6 sequence (P08754 whole entry, stated change not applied): as the sequence (P08754 whole entry L249V) above, with V249L counted along it
T3 sequence (P08754 whole entry F215A): as the sequence (P08754 whole entry L249V) above, with F215A, V249L counted along it

- Kd (His-Gαi3 L249V): 84 ± 9 nM
Compound: CC[C@H](C)[C@H](NC(=O)[C@H](CC(C)C)NC(=O)[C@H](CCC(=O)O)NC(=O)[C@H](Cc1ccccc1)NC(=O)[C@H](Cc1ccccc1)NC(=O)[C@H](CCC(=O)O)NC(=O)[C@H](CCC(=O)O)NC(=O)[C@H](C)NC(=O)[C@H](CCC(=O)O)NC(=O)[C@H](CC(=O)O)NC(=O)c1ccc2c(c1)C1(OC2=O)c2ccc(O)cc2Oc2cc(O)ccc21)C(=O)N[C@@H](CO)C(=O)N[C@@H](CCCCN)C(=O)N[C@@H](C)C(=O)N[C@@H](CCC(N)=O)C(=O)N[C@@H](CO)C(=O)N[C@@H](CC(N)=O)C(=O)N[C@@H](CCCNC(=N)N)C(=O)N[C@@H](C)C(=O)N[C@@H](CC(=O)O)C(=O)N[C@@H](CC(=O)O)C(=O)N[C@@H](CCC(N)=O)C(=O)N[C@@H](CCCNC(=N)N)C(=O)NCC(=O)N[C@@H](CC(C)C)C(=O)N[C@@H](CC(C)C)C(=O)N[C@@H](CCCNC(=N)N)C(=O)N[C@@H](CCCCN)C(=O)N[C@@H](CCC(=O)O)C(=O)N[C@@H](CC(=O)O)C(=O)N[C@@H](CC(C)C)C(=O)N[C@H](C(=O)N[C@@H](CC(C)C)C(=O)N1CCC[C@H]1C(=O)N[C@@H](CCC(=O)O)C(=O)N[C@@H](Cc1ccccc1)C(=O)N[C@@H](CC(C)C)C(=O)N[C@@H](CCCNC(=N)N)C(N)=O)C(C)C [RGS12, reference compound] (6FAM-DEAEEFFELISKAQSNRADDQRGLLRKEDLVLPEFLR-NH2)

- binding to Gαi3 W211A and F215A (His-Gαi3 W211A and F215A): abolished
Compound: Gβγ: retinal Gβγ (Gβ1γ1) purified from bovine retinas

The remaining lines, values behind:

Compound: CC[C@H](C)[C@H](NC(=O)[C@H](CCC(N)=O)NC(=O)[C@@H](NC(=O)[C@H](CO)NC(=O)[C@@H](NC(=O)[C@H](CC(C)C)NC(=O)[C@H](CCCCN)NC(=O)[C@H](CC(N)=O)NC(=O)[C@H](CO)NC(=O)[C@H](CCC(=O)O)NC(=O)[C@H](CCC(=O)O)NC(=O)[C@H](CC(C)C)NC(=O)[C@H](Cc1ccccc1)NC(=O)[C@H](CCC(N)=O)NC(=O)[C@H](CCC(N)=O)NC(=O)[C@H](CC(C)C)NC(=O)[C@@H](NC(=O)[C@@H](NC(=O)[C@@H](NC(=O)[C@H](CCC(=O)O)NC(=O)[C@H](CO)NC(=O)CNC(=O)[C@@H]1CCCN1C(=O)[C@H](CO)NC(=O)CNC(=O)[C@@H](NC(=O)[C@H](CCCCN)NC(=O)c1ccc2c(c1)C1(OC2=O)c2ccc(O)cc2Oc2cc(O)ccc21)[C@@H](C)O)C(C)C)C(C)C)[C@@H](C)O)[C@@H](C)O)C(C)C)C(=O)N[C@@H](CCCCN)C(=O)N[C@@H](CO)C(=O)N[C@@H](CO)C(=O)N[C@@H](CO)C(N)=O [GIV]
- Kd (His-Gαi3 K35A): > 10 µM
- Kd (His-Gαi3 W211A): > 20 µM
- Kd (His-Gαi3 F215A): > 10 µM
- Kd (His-Gαi3 L249V): 1370 ± 199 nM
- Kd (His-Gαi3 N256E): > 20 µM
- affinity for ΔHis-Gαi3 compared with His-Gαi3 (ΔHis-Gαi3): the same affinity

Compound: KTGSPGSEVVTLQQFLEESNKLTSVQ [GIVpept, peptide corresponding to GIV amino acids 1,671–1,696]
- overall decrease in signal intensities (Gαi3-GDP): ~15%

Compound: rhodopsin: bovine rhodopsin solubilized from urea-washed ROS membranes
- activation of Gαi3 mutants ([1]; K35A, L249H, S252D and N256E): activated efficiently
- activation of Gαi3 ΔC9 ([1]; ΔC9): completely abolished

From publication PMC5454376, “Molecular mechanism of Gαi activation by non-GPCR proteins with a Gα-Binding and Activating motif” (Nature Communications, 2017)
